Experimental data as given in patent publication US12220421B2, “Inhibitors of C. difficile spore germination” (THE BOARDS OF REGENTS OF THE NEVADA SYSTEM OF HIGHER …, priority 2021, dated 2025).
Like-named read-outs stand apart in the source and are kept apart here.

Tested on: C. difficile R20291 spores
Test: C. difficile spore germination assay (optical density, OD580)
[1] = Clostridioides difficile, R20291SPORES, Table 2, 6 mM taurocholate, 12 mM glycine
[2] = Clostridioides difficile, R20291SPORES, read-out: % Germination, Table 2, compound 125 μM, 6 mM taurocholate, 12 mM glycine, ± standard deviation
[3] = Clostridioides difficile, R20291SPORES, read-out: IC50 against the R20291 strain, R20291 strain
[4] = Clostridioides difficile, R20291SPORES, Table 3, 6 mM taurocholate, 12 mM glycine
[5] = Clostridioides difficile, R20291SPORES, read-out: % Germination, Table 3, compound 125 μM, 6 mM taurocholate, 12 mM glycine, ± standard deviation
[6] = Table 4, compound 125 uM, 6 mM taurocholate, 12 mM glycine, ± standard deviation
[7] = Clostridioides difficile, R20291SPORES, Table 4, 6 mM taurocholate, 12 mM glycine
[8] = Clostridioides difficile, R20291SPORES, read-out: % Germination (125 μM), Table 5, compound 125 μM, 6 mM taurocholate, 12 mM glycine, 100% indicates no inhibition

## C[C@H](CCC(=O)N1CCc2ccccc21)[C@H]1CC[C@H]2[C@@H]3[C@H](O)C[C@@H]4C[C@H](O)CC[C@]4(C)[C@H]3C[C@H](O)[C@]12C [Compound 1]
[1]
  IC50: 1 ± 0.3 µM
[2]
  activity at 125 µM: 4 ± 1%
[3]
  IC50: 1 µM

## C[C@H](CCC(=O)N1CCc2c(Cl)cccc21)[C@H]1CC[C@H]2[C@@H]3[C@H](O)C[C@@H]4C[C@H](O)CC[C@]4(C)[C@H]3C[C@H](O)[C@]12C [Compound 2]
[2]
  activity at 125 µM: 95 ± 8%

## Cc1ccc2c(c1)CCN2C(=O)CC[C@@H](C)[C@H]1CC[C@H]2[C@@H]3[C@H](O)C[C@@H]4C[C@H](O)CC[C@]4(C)[C@H]3C[C@H](O)[C@]12C [Compound 3]
[2]
  activity at 125 µM: 100%

## C[C@H](CCC(=O)N1CCc2cc(F)ccc21)[C@H]1CC[C@H]2[C@@H]3[C@H](O)C[C@@H]4C[C@H](O)CC[C@]4(C)[C@H]3C[C@H](O)[C@]12C [Compound 4]
[1]
  IC50: 0.4 ± 0.04 µM
[2]
  activity at 125 µM: 5 ± 3%

## C[C@H](CCC(=O)N1CCc2cc(Cl)ccc21)[C@H]1CC[C@H]2[C@@H]3[C@H](O)C[C@@H]4C[C@H](O)CC[C@]4(C)[C@H]3C[C@H](O)[C@]12C [Compound 5]
[2]
  activity at 125 µM: 70 ± 3%

## C[C@H](CCC(=O)N1CCc2cc(Br)ccc21)[C@H]1CC[C@H]2[C@@H]3[C@H](O)C[C@@H]4C[C@H](O)CC[C@]4(C)[C@H]3C[C@H](O)[C@]12C [Compound 6]
[2]
  activity at 125 µM: 90 ± 3%
[3]
  IC50: 0.4 µM

## COc1ccc2c(c1)N(C(=O)CC[C@@H](C)[C@H]1CC[C@H]3[C@@H]4[C@H](O)C[C@@H]5C[C@H](O)CC[C@]5(C)[C@H]4C[C@H](O)[C@]13C)CC2 [Compound 7]
[2]
  activity at 125 µM: 100%

## C[C@H](CCC(=O)N1CCCc2ccccc21)[C@H]1CC[C@H]2[C@@H]3[C@H](O)C[C@@H]4C[C@H](O)CC[C@]4(C)[C@H]3C[C@H](O)[C@]12C [Compound 8]
[1]
  IC50: 22 ± 3 µM
[2]
  activity at 125 µM: 17 ± 3%

## Cc1ccc2c(c1)CCCN2C(=O)CC[C@@H](C)[C@H]1CC[C@H]2[C@@H]3[C@H](O)C[C@@H]4C[C@H](O)CC[C@]4(C)[C@H]3C[C@H](O)[C@]12C [Compound 9]
[2]
  activity at 125 µM: 100%

## C[C@H](CCC(=O)N1CCc2ccccc2C1)[C@H]1CC[C@H]2[C@@H]3[C@H](O)C[C@@H]4C[C@H](O)CC[C@]4(C)[C@H]3C[C@H](O)[C@]12C [Compound 11]
[2]
  activity at 125 µM: 78 ± 2%

## COc1ccc2c(c1)CCN(C(=O)CC[C@@H](C)[C@H]1CC[C@H]3[C@@H]4[C@H](O)C[C@@H]5C[C@H](O)CC[C@]5(C)[C@H]4C[C@H](O)[C@]13C)C2 [Compound 12]
[2]
  activity at 125 µM: 100%

## C[C@H](CCC(=O)N1CCc2cc(Br)ccc2C1)[C@H]1CC[C@H]2[C@@H]3[C@H](O)C[C@@H]4C[C@H](O)CC[C@]4(C)[C@H]3C[C@H](O)[C@]12C [Compound 13]
[2]
  activity at 125 µM: 100%

## C[C@H](CCC(=O)N(C)c1ccccc1)[C@H]1CC[C@H]2[C@@H]3[C@H](O)C[C@@H]4C[C@H](O)CC[C@]4(C)[C@H]3C[C@H](O)[C@]12C [Compound 14]
[1]
  IC50: 32 ± 5 µM
[2]
  activity at 125 µM: 31 ± 2%

## C=CCN(CC=C)C(=O)CC[C@@H](C)[C@H]1CC[C@H]2[C@@H]3[C@H](O)C[C@@H]4C[C@H](O)CC[C@]4(C)[C@H]3C[C@H](O)[C@]12C [Compound 15]
[1]
  IC50: 8 ± 3 µM
[2]
  activity at 125 µM: 0.9 ± 0.2%

## Cc1nc(CC[C@@H](C)[C@H]2CC[C@H]3[C@@H]4[C@H](O)C[C@@H]5C[C@H](O)CC[C@]5(C)[C@H]4C[C@H](O)[C@]23C)nc2ccccc12 [Compound 30]
[4]
  IC50: 37 ± 4 µM
[5]
  activity at 125 µM: 35 ± 5%

## C[C@H](CCc1nc(-c2ccccc2)c2ccccc2n1)[C@H]1CC[C@H]2[C@@H]3[C@H](O)C[C@@H]4C[C@H](O)CC[C@]4(C)[C@H]3C[C@H](O)[C@]12C [Compound 31]
[5]
  activity at 125 µM: 92 ± 4%

## C[C@H](CCc1ncc2c(F)cccc2n1)[C@H]1CC[C@H]2[C@@H]3[C@H](O)C[C@@H]4C[C@H](O)CC[C@]4(C)[C@H]3C[C@H](O)[C@]12C [Compound 32]
[5]
  activity at 125 µM: 36 ± 6%

## C[C@H](CCc1ncc2cc(F)ccc2n1)[C@H]1CC[C@H]2[C@@H]3[C@H](O)C[C@@H]4C[C@H](O)CC[C@]4(C)[C@H]3C[C@H](O)[C@]12C [Compound 33]
[4]
  IC50: 28 ± 4 µM
[5]
  activity at 125 µM: 7 ± 3%

## C[C@H](CCc1ncc2cc(Cl)ccc2n1)[C@H]1CC[C@H]2[C@@H]3[C@H](O)C[C@@H]4C[C@H](O)CC[C@]4(C)[C@H]3C[C@H](O)[C@]12C [Compound 34]
[5]
  activity at 125 µM: 59 ± 0.2%

## C[C@H](CCc1ncc2ccc(F)cc2n1)[C@H]1CC[C@H]2[C@@H]3[C@H](O)C[C@@H]4C[C@H](O)CC[C@]4(C)[C@H]3C[C@H](O)[C@]12C [Compound 35]
[5]
  activity at 125 µM: 57 ± 2%

## C[C@H](CCc1ncc2ccc(Cl)cc2n1)[C@H]1CC[C@H]2[C@@H]3[C@H](O)C[C@@H]4C[C@H](O)CC[C@]4(C)[C@H]3C[C@H](O)[C@]12C [Compound 36]
[5]
  activity at 125 µM: 89 ± 10%

## COc1ccc2cnc(CC[C@@H](C)[C@H]3CC[C@H]4[C@@H]5[C@H](O)C[C@@H]6C[C@H](O)CC[C@]6(C)[C@H]5C[C@H](O)[C@]34C)nc2c1 [Compound 37]
[5]
  activity at 125 µM: 61 ± 5%

## C[C@H](CCc1ncc2cccc(F)c2n1)[C@H]1CC[C@H]2[C@@H]3[C@H](O)C[C@@H]4C[C@H](O)CC[C@]4(C)[C@H]3C[C@H](O)[C@]12C [Compound 38]
[4]
  IC50: 79 ± 23 µM
[5]
  activity at 125 µM: 7 ± 0.7%

## COc1cc2cnc(CC[C@@H](C)[C@H]3CC[C@H]4[C@@H]5[C@H](O)C[C@@H]6C[C@H](O)CC[C@]6(C)[C@H]5C[C@H](O)[C@]34C)nc2cc1OC [Compound 39]
[5]
  activity at 125 µM: 78 ± 3%

## C[C@H](CCc1ncc2cc(F)c(F)cc2n1)[C@H]1CC[C@H]2[C@@H]3[C@H](O)C[C@@H]4C[C@H](O)CC[C@]4(C)[C@H]3C[C@H](O)[C@]12C [Compound 41]
[5]
  activity at 125 µM: 70 ± 23%

## C[C@H](CCc1nc2ccccc2c(=O)[nH]1)[C@H]1CC[C@H]2[C@@H]3[C@H](O)C[C@@H]4C[C@H](O)CC[C@]4(C)[C@H]3C[C@H](O)[C@]12C [Compound 43]
[4]
  IC50: 20 ± 11 µM
[5]
  activity at 125 µM: 32 ± 0.6%

## C[C@H](CCc1nc2ccccc2[nH]1)[C@H]1CC[C@H]2[C@@H]3[C@H](O)C[C@@H]4C[C@H](O)CC[C@]4(C)[C@H]3C[C@H](O)[C@]12C [Compound 45]
Table 4, 6 mM taurocholate, 12 mM glycine
  IC50: 12 ± 7 µM
[6]
  % Germination: 18 ± 2%

## C[C@H](CCc1nc2ccccc2[nH]1)[C@H]1CC[C@H]2[C@@H]3[C@H](O)C[C@@H]4C[C@H](O)CC[C@]4(C)[C@H]3C[C@H](O)[C@]12C [Compound 46]
[7]
  IC50: 6 ± 1 µM
Clostridioides difficile, R20291SPORES, read-out: % Germination, Table 4, compound 125 uM, 6 mM taurocholate, 12 mM glycine, ± standard deviation
  activity at 125 µM: 23 ± 5%

## C[C@H](CCc1nc2ccccc2s1)[C@H]1CC[C@H]2[C@@H]3[C@H](O)C[C@@H]4C[C@H](O)CC[C@]4(C)[C@H]3C[C@H](O)[C@]12C [Compound 47]
[7]
  IC50: 6 ± 4 µM
[6]
  % Germination: −6 ± 0.05%

## C[C@H](CCc1nc2ccccc2s1)[C@H]1CC[C@H]2[C@@H]3[C@H](O)C[C@@H]4C[C@H](O)CC[C@]4(C)[C@H]3C[C@H](O)[C@]12C [Compound 48]
[6]
  % Germination: 88 ± 5%

## C[C@H](CCc1nc2ccccc2s1)[C@H]1CC[C@H]2[C@@H]3[C@H](O)C[C@@H]4C[C@H](O)CC[C@]4(C)[C@H]3C[C@H](O)[C@]12C [Compound 49]
[6]
  % Germination: 81 ± 2%

## C[C@H](CCc1nc2ccccc2o1)[C@H]1CC[C@H]2[C@@H]3[C@H](O)C[C@@H]4C[C@H](O)CC[C@]4(C)[C@H]3C[C@H](O)[C@]12C [Compound 50]
[7]
  IC50: 6 ± 3 µM
[6]
  % Germination: −4 ± 0.8%

## C[C@H](CCc1nc2ccccc2o1)[C@H]1CC[C@H]2[C@@H]3[C@H](O)C[C@@H]4C[C@H](O)CC[C@]4(C)[C@H]3C[C@H](O)[C@]12C [Compound 51]
[6]
  % Germination: 80 ± 4%

## C[C@H](CCc1nc2ccccc2o1)[C@H]1CC[C@H]2[C@@H]3[C@H](O)C[C@@H]4C[C@H](O)CC[C@]4(C)[C@H]3C[C@H](O)[C@]12C [Compound 52]
[6]
  % Germination: 83 ± 8%

## COc1ccccc1NC(=O)CC[C@@H](C)[C@H]1CC[C@H]2[C@@H]3[C@H](O)C[C@@H]4C[C@H](O)CC[C@]4(C)[C@H]3CC[C@]12C [Compound 54]
Clostridioides difficile, R20291SPORES, Table 5, 6 mM taurocholate, 12 mM glycine
  IC50: 6 ± 1 µM
[8]
  activity at 125 µM: 31 ± 2%

## C[C@H](CCC(=O)Nc1cccc(F)c1)[C@H]1CC[C@H]2[C@@H]3[C@H](O)C[C@@H]4C[C@H](O)CC[C@]4(C)[C@H]3CC[C@]12C [Compound 55]
[8]
  activity at 125 µM: 100%
